Results as given in patent publication US11479617B2, “Chelator-functionalized glycosaminoglycans” (priority 2018, dated 2022).

Compound	maximal inhibitory concentration (RAW 264.7 macrophages) [µg/mL]	maximal inhibitory concentration (NIH-3T3 fibroblasts) [µg/mL]	cytocompatibility (cell enumeration, metabolism, toxicity) (RAW 264.7 macrophages)	cytocompatibility (cell enumeration, metabolism, toxicity) (NIH-3T3 fibroblasts)
O.O.O.O.O.O.[Cl-].[Cl-].[Co+2] [CoCl2.6H2O]	~50	~25	–	–
hyaluronic acid [HA]	–	–	cytocompatible	cytocompatible
